Read-outs that look alike come from different tables or passages of the source.
Experiments:
Galectin-3 = Galectin-3 (Homo sapiens, UniProt P17931); assay: fluorescence anisotropy assay, compound as inhibitor of galectin / fluorescein tagged saccharide probe interaction; assay type: binding
Text: (§1) Anal. Biochem. 334: 36-47, (Sörme et al., 2004) and Monovalent interactions of Galectin-1 By Salomonsson, Emma; Larumbe, Amaia; Tejler, Johan; Tullberg, Erik; Rydberg, Hanna; Sundin, Anders; Khabut, Areej; Frejd, Torbjorn; Lobsanov, Yuri D.; Rini, James M.; et al, From Biochemistry (2010), 49(44), 9518-9532, (Salomonsson et al., 2010).

Galectin-1 = Galectin-1 (Homo sapiens, UniProt P09382); assay: as above; assay type: binding
Galectin-1, sequence (P09382 whole entry): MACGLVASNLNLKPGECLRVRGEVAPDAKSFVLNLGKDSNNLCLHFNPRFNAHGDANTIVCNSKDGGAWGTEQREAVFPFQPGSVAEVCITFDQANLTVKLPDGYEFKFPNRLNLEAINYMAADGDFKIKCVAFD
Text: as §1

Galectin-3, sequence (P17931 whole entry): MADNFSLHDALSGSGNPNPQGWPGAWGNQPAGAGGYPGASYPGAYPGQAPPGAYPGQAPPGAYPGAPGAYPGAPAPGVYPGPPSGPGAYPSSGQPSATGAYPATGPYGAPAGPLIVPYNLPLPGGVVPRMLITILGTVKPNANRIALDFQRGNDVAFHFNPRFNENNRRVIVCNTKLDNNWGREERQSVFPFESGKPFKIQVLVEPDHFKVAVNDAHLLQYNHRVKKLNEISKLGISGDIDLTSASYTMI

| SMILES | Kd (Galectin-3) [nM] | Kd (Galectin-1) [nM] | Kd (Galectin-1; read-out: Galectin-1 Kd) [nM] |
| --- | --- | --- | --- |
| CO[C@@H]1[C@@H](n2cc(-c3csc(N)n3)nn2)[C@@H](O)[C@@H](CO)O[C@@H]1Sc1cc(Cl)cnc1-c1ncco1 [Example 27, 5-Chloro-2-(oxazol-2-yl)pyridin-3-yl 3-[4-(2-aminothiazol-4-yl)-1H-1,2,3-triazol-1-yl]-3-deoxy-2-O-methyl-1-thio-α-D-galactopyranoside] | 3200 | 28 |  |
| COC1C(n2cc(-c3csc(N)n3)nn2)[C@@H](O)C(CO)O[C@@H]1Sc1ccc(Cl)c(Cl)c1 (stereo partly drawn) [Example 28, 3,4-Dichlorphenyl 3-[4-(2-aminothiazol-4-yl)-1H-1,2,3-triazol-1-yl]-3-deoxy-2-O-methyl-1-thio-α-D-galactopyranoside] | 2400 |  | 63 |
| CO[C@@H]1[C@@H](n2cc(-c3csc(N)n3)nn2)[C@@H](O)[C@@H](CO)O[C@@H]1Sc1cc(Cl)cnc1-c1nccs1 [Example 29, 5-Chloro-2-(thiazol-2-yl)pyridin-3-yl 3-[4-(2-aminothiazol-4-yl)-1H-1,2,3-triazol-1-yl]-3-deoxy-2-O-methyl-1-thio-α-D-galactopyranoside] | 8700 | 48 |  |
| CO[C@@H]1[C@@H](n2cc(-c3csc(N)n3)nn2)[C@@H](O)[C@@H](CO)O[C@@H]1Sc1cccc(Cl)c1 [Example 31, 3-Chlorophenyl 3-[4-(2-aminothiazol-4-yl)-1H-1,2,3-triazol-1-yl]-3-deoxy-2-O-methyl-1-thio-α-D-galactopyranoside] | 5600 | 200 |  |
| Cc1sc(N)nc1-c1cn(C2C(O)[C@@H](Sc3cnc(C(F)(F)F)c(Br)c3)OC(CO)[C@@H]2O)nn1 (stereo partly drawn) [Example 33] | 3000 | 500 |  |
| CO[C@@H]1[C@@H](n2cc(-c3nc(C)cs3)nn2)[C@@H](O)[C@@H](CO)O[C@@H]1Sc1cc(C)cnc1C#N [Example 35, 2-Cyano-5-methylpyridin-3-yl 3-deoxy-3-[4-(4-methylthiazol-2-yl)-1H-1,2,3-triazol-1-yl]-2-O-methyl-1-thio-α-D-galactopyranoside] | 9000 | 490 |  |
| COC1C(n2cc(-c3csc(N)n3)nn2)[C@@H](O)C(CO)O[C@@H]1Sc1cc(Cl)cnc1N1CC2(COC2)C1 (stereo partly drawn) [Example 38, 5-Chloro-2-{N-(2-oxa)-6-azaspiro[3.3]heptanyl}-pyridin-3-yl 3-[4-(2-aminothiazol-4-yl)-1H-1,2,3-triazol-1-yl]-3-deoxy-2-O-methyl-1-thio-α-D-galactopyranoside] | 6100 | 100 |  |
| CO[C@@H]1[C@@H](n2cc(-c3csc(N)n3)nn2)[C@@H](O)[C@@H](CO)O[C@@H]1Sc1ccc(C#N)c(Cl)c1 [Example 39, 3-Chloro-4-cyanophenyl 3-[4-(2-aminothiazol-4-yl)-1H-1,2,3-triazol-1-yl]-3-deoxy-2-O-methyl-1-thio-α-D-galactopyranoside] | 3600 | 71 |  |
| CO[C@@H]1[C@@H](n2cc(-c3csc(N)n3)nn2)[C@@H](O)[C@@H](CO)O[C@@H]1Sc1cncc(C#N)c1 [Example 40, 5-Cyanopyridin-3yl 3-[4-(2-aminothiazol-4-yl)-1H-1,2,3-triazol-1-yl]-3-deoxy-2-O-methyl-1-thio-α-D-galactopyranoside] | 10700 | 240 |  |
| OC[C@H]1O[C@H](Sc2cc(Cl)c(F)c(Cl)c2)C[C@@H](n2cc(-c3csc(O)n3)nn2)[C@H]1O [Example 41, 3,5-Dichloro-4-fluorophenyl 2,3-dideoxy-3-[4-(2-hydroxythiazol-4-yl)-1H-1,2,3-triazol-1-yl]-1-thio-α-D-galactopyranoside] | 9300 | 130 |  |
| N#Cc1ccc(S[C@@H]2C[C@@H](n3cc(-c4csc(N)n4)nn3)[C@@H](O)[C@@H](CO)O2)cc1Cl [Example 42, 3-Chloro-4-cyanophenyl 3-[4-(2-aminothiazol-4-yl)-1H-1,2,3-triazol-1-yl]-2,3-dideoxy-1-thio-α-D-galactopyranoside] | 10300 | 730 |  |
| CO[C@@H]1[C@@H](n2cc(-c3csc(N)n3)nn2)[C@@H](O)[C@@H](CO)O[C@@H]1Sc1cnc(C(F)(F)F)c(C#N)c1 [Example 44, 3-Cyano-2-(trifluoromethyl)pyridin-5-yl 3-[4-(2-aminothiazol-4-yl)-1H-1,2,3-triazol-1-yl]-3-deoxy-2-O-methyl-1-thio-α-D-galactopyranoside] | 16700 | 360 |  |
| CO[C@@H]1[C@@H](n2cc(-c3nc(C)cs3)nn2)[C@@H](O)[C@@H](CO)O[C@@H]1Sc1cc(Cl)cnc1-c1ccccn1 [Example 46, 5-Chloro-2-(pyridin-2-yl)pyridin-3-yl 3-deoxy-3-[4-(4-methylthiazol-2-yl)-1H-1,2,3-triazol-1-yl]-2-O-methyl-1-thio-α-D-galactopyranoside] | 2530 | 35 |  |
| C#Cc1cncc(S[C@H]2O[C@H](CO)[C@H](O)[C@H](n3cc(-c4nccs4)nn3)[C@H]2OC)c1 [Example 47, 5-Ethynylpyridin-3-yl 3-deoxy-2-O-methyl-3-[4-(2-thiazolyl)-1H-1,2,3-triazol-1-yl]-1-thio-α-D-galactopyranoside] | 3200 | 570 |  |

Continued, in another order:

| Kd (Galectin-3) [nM] | Kd (Galectin-1) [nM] | SMILES | Kd (Galectin-1; read-out: Galectin-1 Kd) [nM] |
| --- | --- | --- | --- |
| 2500 | 120 | CO[C@@H]1[C@@H](n2cc(-c3csc(N)n3)nn2)[C@@H](O)[C@@H](CO)O[C@@H]1Sc1ccc(C(F)(F)F)c(Cl)c1 [Example 30, 3-Chloro-4-(trifluoromethyl)phenyl 3-[4-(2-aminothiazol-4-yl)-1H-1,2,3-triazol-1-yl]-3-deoxy-2-O-methyl-1-thio-α-D-galactopyranoside] |  |
| 1400 | 53 | CO[C@@H]1[C@@H](n2cc(-c3nc(C)cs3)nn2)[C@@H](O)[C@@H](CO)O[C@@H]1Sc1cc(Br)cnc1C#N [Example 34, 5-Bromo-2-cyanopyridin-3-yl 3-deoxy-3-[4-(4-methylthiazol-2-yl)-1H-1,2,3-triazol-1-yl]-2-O-methyl-1-thio-α-D-galactopyranoside] |  |
| 700 | 190 | CO[C@@H]1[C@@H](n2cc(-c3nc(Cl)cs3)nn2)[C@@H](O)[C@@H](CO)O[C@@H]1Sc1cc(C)cnc1C#N [Example 36, 2-Cyano-5-methylpyridin-3-yl 3-[4-(4-chlorothiazol-2-yl)-1H-1,2,3-triazol-1-yl]-3-deoxy-2-O-methyl-1-thio-α-D-galactopyranoside] |  |
| 390 | 200 | C#Cc1cncc(S[C@H]2O[C@H](CO)[C@H](O)[C@H](n3cc(-c4nc(Cl)cs4)nn3)[C@H]2OC)c1 [Example 37, 5-Ethynylpyridin-3-yl 3-[4-(4-chlorothiazol-2-yl)-1H-1,2,3-triazol-1-yl]-3-deoxy-2-O-methyl-1-thio-α-D-galactopyranoside] |  |
| 1200 | 130 | N#Cc1ccc(Cl)cc1S[C@@H]1C[C@@H](n2cc(-c3nc(Cl)cs3)nn2)[C@@H](O)[C@@H](CO)O1 [Example 43, 5-Chloro-2-cyanophenyl 3-[4-(4-chlorothiazol-2-yl)-1H-1,2,3-triazol-1-yl]-2,3-dideoxy-1-thio-α-D-galactopyranoside] |  |
| 74 | 22 | COC1C(n2cc(-c3nc(Cl)cs3)nn2)[C@@H](O)C(CO)O[C@@H]1Sc1cc(Cl)cnc1C(=O)N1CCC1 (stereo partly drawn) [Example 45, 5-Chloro-2-(N-azetidinylcarbamoyl)-3-pyridinyl 3-[4-(4-chlorothiazol-2-yl)-1H-1,2,3-triazol-1-yl]-3-deoxy-2-O-methyl-1-thio-α-D-galactopyranoside] |  |
| 420 | 150 | OC[C@H]1O[C@H](Sc2cncc(Cl)c2)[C@H](O)[C@@H](n2cc(-c3nc(Cl)cs3)nn2)[C@H]1O [Example 48, 5-Chloropyridin-3-yl 3-[4-(4-chlorothiazol-2-yl)-1H-1,2,3-triazol-1-yl]-3-deoxy-1-thio-α-D-galactopyranoside] |  |
| 190 | 150 | OC[C@H]1O[C@H](Sc2cncc(Br)c2)[C@H](O)[C@@H](n2cc(-c3nc(Cl)cs3)nn2)[C@H]1O [Example 49, 5-Bromopyridin-3-yl 3-[4-(4-chlorothiazol-2-yl)-1H-1,2,3-triazol-1-yl]-3-deoxy-1-thio-α-D-galactopyranoside] |  |
| 230 | 110 | N#Cc1ccc(Cl)cc1S[C@H]1O[C@H](CO)[C@H](O)[C@H](n2cc(-c3nc(Cl)cs3)nn2)[C@H]1O [Example 50, 5-Chloro-2-cyanophenyl 3-[4-(4-chlorothiazol-2-yl)-1H-1,2,3-triazol-1-yl]-3-deoxy-1-thio-α-D-galactopyranoside] |  |
| 370 | 250 | N#Cc1cc(Cl)cc(S[C@H]2O[C@H](CO)[C@H](O)[C@H](n3cc(-c4nc(Cl)cs4)nn3)[C@H]2O)c1 [Example 51, 3-Chloro-5-cyanophenyl 3-[4-(4-chlorothiazol-2-yl)-1H-1,2,3-triazol-1-yl]-3-deoxy-1-thio-α-D-galactopyranoside] |  |
| 410 | 170 | N#Cc1ccc(S[C@H]2O[C@H](CO)[C@H](O)[C@H](n3cc(-c4nc(Cl)cs4)nn3)[C@H]2O)cc1Cl [Example 52, 3-Chloro-4-cyanophenyl 3-[4-(4-chlorothiazol-2-yl)-1H-1,2,3-triazol-1-yl]-3-deoxy-1-thio-α-D-galactopyranoside] |  |
| 340 | 54 | CO[C@@H]1[C@@H](n2cc(-c3nc(Cl)cs3)nn2)[C@@H](O)[C@@H](CO)O[C@@H]1Sc1cncc(Cl)c1 [Example 53, 5-Chloropyridin-3-yl 3-[4-(4-chlorothiazol-2-yl)-1H-1,2,3-triazol-1-yl]-3-deoxy-2-O-methyl-1-thio-α-D-galactopyranoside] |  |
| 190 | 90 | CO[C@@H]1[C@@H](n2cc(-c3nc(Cl)cs3)nn2)[C@@H](O)[C@@H](CO)O[C@@H]1Sc1cncc(Br)c1 [Example 54, 5-Bromopyridin-3-yl 3-[4-(4-chlorothiazol-2-yl)-1H-1,2,3-triazol-1-yl]-3-deoxy-2-O-methyl-1-thio-α-D-galactopyranoside] |  |

From US12441754B2, “Galactoside inhibitor of galectins” (GALECTO BIOTECH AB, priority 2019, dated 2025)
